{"source": "patent US7183267B2", "about": "“β-lactamase inhibitors and methods of use thereof” (priority 2003, dated 2007)", "assay_type_in_all_cases": "cell-based", "key": {"[1]": {"system": "methicillin resistant S. aureus from Stanford University Hospital (MRSA-SU)", "test": "MIC assay, broth microdilution, MRSA-SU", "conditions": "Staphylococcus aureus; MRSA-SU; substance alone; at least 24 hours at 35° C.; read-out: MIC", "excerpt": "(2) methicillin resistant S. aureus from Stanford University Hospital Clinical Microbiology/Virology Laboratory (MRSA-SU). […] Such Staphylococci are also resistant to all penicillins, and all cephalosporins, in addition to all β-lactamase inhibitor combinations (including ampicillin/sulbactarn, amoxicillin/clavulanic acid, piperacillin/tazobactam), imipenem, and meropenem; and\n(§1) The strains were processed according to procedures recommended by ATCC, or procedures that are routinely used. Single colonies of each organism were picked for purification to generate pure working cultures. Prior to each experiment each strain was subcultured on a fresh Mueller-Hinton agar plate (MHA).\n(§2) Inocula for the MIC assays were prepared by transferring a tiny portion of one colony from a MHA plate to 2 ml of Mueller-Hinton broth (MHB) such that the estimated cell density was about 10^7 colony forming unit (CFU)/ml. This cell suspension was then further diluted 10-fold (to 10^6 CFU/ml) by transferring the 2 ml cell suspension to 18 ml of MHB. Addition of 50 μl of this dilute cell suspension to 50 μl of growth medium yielded the desired cell density, namely about 5×10^4 CFU/well, or 5×10^5 CFU/ml.\n(§3) The MIC value of oxacillin was determined using the broth microdilution procedure recommended by the National Committee of Clinical Laboratory Standards (NCCLS, 2000).\n(§4) The MIC experiments were performed in duplicate in 96-well microtiter plates using MHB. A stock solution of 2.6 mg/0.5 ml was prepared in dimethylsulfoxide (DMSO). A total of 8 two-fold serial dilutions were made with DMSO. Initial oxacillin doses used were (μg/ml): 64, 32, 16, 8, 4, 2, 1, and 0.5. Doses were adjusted in the confirmatory experiment, if needed, in order to establish an actual MIC value.\n(§5) To each well of a 96 well microtiter plate was added 47.5 μl of MHB. A volume of 2.5 μl of each dilution of oxacillin was then transferred to appropriate wells containing the medium. All wells, except the sterility control wells, were then inoculated with 50 μl of a diluted cell suspension to give a final volume of 100 μl and a final cell density of 5×10^4 CFU/well. The volume in the sterility control wells was adjusted to 100 μl with MHB. A sterile pipette tip was used to mix the contents of each well (one tip was used going from the low to the high concentration in the same column). The microtiter plates were covered with the lids and were placed in large Stratagene Big Blue plates (Cat. # 400041). Four large kimwipes moistened with tap water were placed near the edges of the Stratagene plates to prevent evaporation of the medium. The microtiter plates were incubated for at least 24 hours at 35° C. The plates were then evaluated for growth in each well. Controls included: medium sterility and negative control (medium and bacteria only).\n(§6) The procedure used to determine the antimicrobial activity of the compounds of the present invention was identical to the broth microdilution procedure described above with the exception of the preparation of the stock solutions. Stock solution at concentration of 40.96 mg/0.5 ml was prepared in DMSO for each of the compounds. A total of 8 two-fold dilutions were then made in DMSO. A volume of 2.5 μl of each dilution was delivered to appropriate wells. The initial doses used were (μg/ml): 512, 256, 128, 64, 32, 16, 8, and 4.\n(§7) A numerical code was used to evaluate the extent of growth as indicated below. • 0: absence of growth • 1: barely visible (faint) growth • 2: fair growth but less than the negative solvent control • 3: growth is equivalent to the negative solvent control.\n(§8) The lowest dose at which no visible growth is observed was determined to be the MIC value.\n(§9) MIC assays were performed with oxacillin and the four compounds. Each of the compounds was tested at the following 8 doses (μg/ml): 512, 256, 128, 64, 32, 16, 8, and 4. Oxacillin was tested at the following 8 doses (μg/ml): 64, 32, 16, 8, 4, 2, 1, and 0.5."}, "[2]": {"system": "methicillin resistant S. aureus from Stanford University Hospital (MRSA-SU)", "test": "Matrix system: oxacillin plus β-lactamase inhibitor, MRSA-SU", "design": "key to growth score: 0 = no growth, 3 = growth equal to negative solvent control", "method": "as §5, §7, §8\nThe effect of the four compounds of the present invention on oxacillin resistance of the MRSA strains was determined using a matrix system. The β-lactamase inhibitors were tested at 5 doses against up to eleven concentrations of oxacillin. […] A 96-well microtiter plate was used for the matrix system. The procedure was identical to that described above for the MIC determination, with the exception that both oxacillin and one each of the β-lactamase inhibitors was added, 2.5 μl each, to the wells prior to addition of the test organisms.\nMatrix Study:Oxacillin and Compound FL201 with MRSA-SU\nMatrix Study: Oxacillin and Compound FL202 with MRSA-SU"}, "[3]": {"system": "methicillin sensitive S. aureus ATCC 25923 (MSSA)", "test": "MIC assay, broth microdilution, MSSA", "conditions": "Staphylococcus aureus; MSSA; substance alone; at least 24 hours at 35° C.; read-out: MIC", "method": "(3) methicillin sensitive S. aureus ATCC 25923 (MSSA). This strain was obtained from ATCC and was used as a control.\nas §1, §2, §3, §4, §5, §6, §7, §8, §9"}, "[4]": {"system": "methicillin resistant S. aureus ATCC 33591 (MRSA-ATCC)", "test": "MIC assay, broth microdilution, MRSA-ATCC", "conditions": "Staphylococcus aureus; MRSA-ATCC; substance alone; at least 24 hours at 35° C.; read-out: MIC", "method": "(1) methicillin resistant S. aureus ATCC 33591 (MRSA-ATCC). This strain was obtained from American Type Culture Collection (ATCC), Manassas, Md.;\nas §1, §2, §3, §4, §5, §6, §7, §8, §9"}}, "data": [{"smiles": "Cc1onc(-c2ccccc2)c1C(=O)N[C@@H]1C(=O)N2[C@@H]1SC(C)(C)[C@@H]2C(=O)O", "note": "[Oxacillin, reference compound]", "values": [{"measurement": "MIC", "setting": "[1]", "result": "> 64", "unit": "µg/mL"}, {"measurement": "MIC", "setting": "[2]; Staphylococcus aureus, 24 h, Table 17, oxacillin alone, F1201 0", "result": 256, "unit": "µg/mL"}, {"measurement": "growth score", "setting": "[2]; Table 17, oxacillin 0.064 μg/ml, F1201 0", "result": 3}, {"measurement": "growth score", "setting": "[2]; Table 17, oxacillin 0.125 μg/ml, F1201 0", "result": 3}, {"measurement": "growth score", "setting": "[2]; Table 17, oxacillin 0.25 μg/ml, F1201 0", "result": 3}, {"measurement": "growth score", "setting": "[2]; Table 17, oxacillin 0.5 μg/ml, F1201 0", "result": 3}, {"measurement": "growth score", "setting": "[2]; Table 17, oxacillin 1 μg/ml, F1201 0", "result": 3}, {"measurement": "growth score", "setting": "[2]; Table 17, oxacillin 2 μg/ml, F1201 0", "result": 3}, {"measurement": "growth score", "setting": "[2]; Table 17, oxacillin 4 μg/ml, F1201 0", "result": 3}, {"measurement": "growth score", "setting": "[2]; Table 17, oxacillin 16 μg/ml, F1201 0", "result": 3}, {"measurement": "growth score", "setting": "[2]; Table 17, oxacillin 64 μg/ml, F1201 0", "result": 2}, {"measurement": "growth score", "setting": "[2]; Table 17, oxacillin 128 μg/ml, F1201 0", "result": 1}, {"measurement": "growth score", "setting": "[2]; Table 17, oxacillin 256 μg/ml, F1201 0", "result": 0}, {"measurement": "growth score", "setting": "[2]; Table 18, oxacillin 0.064 μg/ml, F1202 0", "result": 3}, {"measurement": "growth score", "setting": "[2]; Table 18, oxacillin 0.125 μg/ml, F1202 0", "result": 3}, {"measurement": "growth score", "setting": "[2]; Table 18, oxacillin 0.25 μg/ml, F1202 0", "result": 3}, {"measurement": "growth score", "setting": "[2]; Table 18, oxacillin 0.5 μg/ml, F1202 0", "result": 3}, {"measurement": "growth score", "setting": "[2]; Table 18, oxacillin 1 μg/ml, F1202 0", "result": 3}, {"measurement": "growth score", "setting": "[2]; Table 18, oxacillin 2 μg/ml, F1202 0", "result": 3}, {"measurement": "growth score", "setting": "[2]; Table 18, oxacillin 4 μg/ml, F1202 0", "result": 3}, {"measurement": "growth score", "setting": "[2]; Table 18, oxacillin 16 μg/ml, F1202 0", "result": 3}, {"measurement": "growth score", "setting": "[2]; Table 18, oxacillin 64 μg/ml, F1202 0", "result": 2}, {"measurement": "growth score", "setting": "[2]; Table 18, oxacillin 128 μg/ml, F1202 0", "result": 2}, {"measurement": "growth score", "setting": "[2]; Table 18, oxacillin 256 μg/ml, F1202 0", "result": 0}, {"measurement": "MIC (oxacillin)", "setting": "[2]; Table 18, oxacillin alone, F1202 0", "result": 256, "unit": "µg/mL"}, {"measurement": "MIC", "setting": "[3]", "result": 0.25, "unit": "µg/mL"}, {"measurement": "MIC", "setting": "[4]", "result": 32, "unit": "µg/mL"}]}]}
